The values that follow are results of earlier work, collected in patent publication US20050218054A1, “Apparatus for Producing sterilized water” (priority 2002, published 2005).

For this series the following is noted: same chlorine concentration.

In the case of `OCl` [hypochlorous acid ion], the “Sterilization power relative to hypochlorous acid (HOCL)” value is listed as “about 1/80”.
